From patent publication US20210115000A1, “NILE RED DERIVATIVES FOR IMPROVED RATIOMETRIC IMAGING FOR NERVE SPECIFIC CONTRAST” (Oregon Health & Sciences University, priority 2018, published 2021)

Legend:
[1] = tested on: sciatic nerve or brachial plexus nerve sites (adipose, nerve, muscle tissue); test: In vivo imaging following direct/topical administration on rodent nerve sites; design: species or system male CD-1 mice; details: immediately following direct administration
Text: In vivo images were acquired using a previously published, custom-built small animal fluorescence imaging system, described briefly here.^27 Fluorescent images were obtained using a Qimaging EXi Blue monochrome camera (Surrey, British Columbia, CA) with a removable Bayer mask for collection of co-registered color and fluorescence images. A Photofluor II broad band light source (89 North) was expanded onto the surgical field through a liquid light guide and used unfiltered for white light illumination. Nile Red and NR5 were excitated using a 545 t 12.5 nm bandpass filter, while fluorescence emission images were collected with a 605±35 nm bandpass filter. Oxazine 4 (Exciton, West Chester, Ohio) was used for nerve and adipose co-staining and ratiometic imaging studies. Oxazine 4 was excited using a 620±30 nm bandpass filter, while fluorescence emission images were collected through a 700±37.5 nm bandpass filter. Approval for the use of animals in the study was obtained from the Institutional Animal Care and Use Committee (IACUC) at Oregon Health and Science University (OHSU). In vivo staining studies were carried out on male CD-1 mice using an optimized direct/topical administration protocol.^2 Staining was performed concurrently on no more than two nerve sites (sciatic nerve or brachial plexus) per mouse. Nile Red and all Nile Red derivatives were formulated in a previously published co-solvent formulation (10% DMSO, 5% Kolliphor, 63.75% serum and 21.25% PBS^14) at a final concentration of 100 μM. Each formulated fluorophore was incubated for 5 minutes on the nerve site (n=4 nerve sites/fluorophore), followed by 9 short flushes with PBS. The nerve site was then incubated with blank co-solvent not containing fluorophore for 5 minutes, followed again by 9 short flushes with PBS.

[2] = tested on: U2OS human osteosarcoma cell line; test: Nile Red derivative cell staining and imaging, fixed and live cells; assay type: cell-based; details: U2OS live, 1 μM, 5 min, imaged in staining solution
Experimental: The U2OS human osteosarcoma cell line was cultured in Dulbecco's Modified Eagle Medium (DMEM, Thermo Fisher Scientific, Waltham, Mass.) with 10% fetal bovine serum (FBS, VWR, Radnor, Pa.) and 1% Penicillin/Steptomycin 100× (Thermo Fisher Scientific) at 37° C. in 5% CO2. For live cell imaging studies, Fluorobrite DMEM media (Thermo Fisher Scientific) was used in place of DMEM. For imaging studies, cells were grown in 96-well glass bottom plates (Cellvis, Mountain View, Calif.) for 48 hours, with a final confluence of <80%. Nile Red and its derivatives were prepared at 1-10 mM stock concentration in DMSO and diluted into media or buffer for cell staining and imaging studies.
Cell staining studies were completed on fixed and live U2OS cells using Nile Red and each synthesized Nile Red derivative described as follows. For fixed cell staining, cells were washed once with 1× phosphate buffered saline (PBS), then fixed with 4% paraformaldehyde (PFA) for 20 minutes at room temperature. The PFA was removed and each well was washed three times for 5 mins per wash (3×5 mins) with 1×PBS. The Nile Red fluorophores were diluted into 1×PBS to a final concentration of 1 μM, incubated for 5 minutes with the cells, and images were collected without washing. Live cell staining was completed using two methods. First, cells were washed once with Fluorobrite DMEM. The Nile Red fluorophore solution was prepared in Fluorobrite DMEM by diluting to a final concentration of 1 μM for staining, where cells were stained for 5 minutes. The fluorophore containing media was removed and the cells were fixed for 20 minutes using 4% PFA. Cells were then washed 3×5 mins with Fluorobrite DMEM prior to imaging. Second, cells were washed with Fluorobrite DMEM without FBS once for 5 minutes. Nile Red fluorophore solutions were prepared in Fluorobrite without FBS at 1 μM final concentration for cell staining. The cells were stained with the prepared solution for 5 minutes and imaged in the staining solution. All images were collected at their ideal exposure times to permit visualization of stained intracellular structures.
All ex vivo and cellular fluorescence and white light images were collected using a Zeiss AxioObserver inverted fluorescence microscope (Carl Zeiss, Oberkochen, Germany). All cell images were collected at 40× magnification and all tissue section images were collected at 10× magnification. Fluorescence excitation was completed using a Photofluor II broad band light source (89 North, Burlington, Vt.) filtered with a 545±12.5 nm bandpass excitation filter. Fluorescence images were collected using a 605±35 nm bandpass emission filter and a AxioCam 506 monochromo camera (Zeiss). All Filters were Purchased from Chroma Technologies (Bellows Falls, Vt.).

[3] = tested on: CD-1 mouse sciatic nerve and surrounding muscle and adipose tissues; test: Ex vivo tissue section staining, imaging and fluorescence quantification; details: 100 μM, 40 min, sections with nerve, muscle, adipose
Experimental: Cryosections of CD-1 mouse sciatic nerve and surrounding muscle and adipose tissues from unrelated experiments were cut from optimal cutting temperature (OCT, Fisher Scientific, Hampton, N.H.) embedded frozen tissues. Cryosectioned tissues were captured on superfrost plus slides (Fisher Scientific) at 10 μm thickness. The tissue sections were washed with 1×PBS for 2 minutes to remove OCT, and then fixed with 2% PFA for 15 mins. The tissue sections were then washed with 0.1% Tween 20 in 1×PBS (3×5 mins), followed by incubation with 100 μM of Nile Red and each Nile Red derivative formulated using 10% DMSO, 5% Kolliphore (Sigma Aldrich, St. Louis, Mo.), 63.75% FBS, and 21.25% 1× PBS as previously described.^26 Tissue sections were incubated with the formulated fluorophores for 40 minutes at room temperature, followed by washing with blank formulation not containing fluorophore (2×5 mins). Each tissue section was then washed with 1×PBS (2×5 mins), fixed for 15 minutes using 2% PFA, followed by a final wash with 1×PBS for 5 mins before mounting in glycerol (Fisher Scientific). Images were collected at an exposure time of 650 ms for all Nile Red and Nile Red derivative stained sections. Four tissue sections were stained for Nile Red and each Nile Red derivative, facilitating adipose to muscle and adipose to nerve contrast ratio quantification where tissue intensities were quantified using region of interest analysis with custom written MatLab code (The MathWorks, Natick, Mass.). For each tissue type, a representative area was selected, where a threshold based mask was set to determine tissue from background. The mean tissue intensity was calculated in adipose, nerve and muscle tissues as the intensity per second and used to calculate the adipose to nerve and adipose to muscle contrast ratios. All ex vivo and cellular fluorescence and white light images were collected using a Zeiss AxioObserver inverted fluorescence microscope (Carl Zeiss, Oberkochen, Germany). All cell images were collected at 40× magnification and all tissue section images were collected at 10× magnification. Fluorescence excitation was completed using a Photofluor II broad band light source (89 North, Burlington, Vt.) filtered with a 545±12.5 nm bandpass excitation filter. Fluorescence images were collected using a 605±35 nm bandpass emission filter and a AxioCam 506 monochromo camera (Zeiss). All Filters were Purchased from Chroma Technologies (Bellows Falls, Vt.).

[4] = Spectroscopic analysis: absorbance, emission and quantum yield of Nile Red derivatives; assay type: physicochemical; details: in DMSO
Experimental: Tandem liquid chromatography mass spectroscopy (LCMS) analysis (Agilent 1260 LC system with a 6224 time of flight (TOF) MS, Agilent, Santa Clara, Calif.) was performed using a 2.7 micron C18 column (4.6×50 mm, Agilent). High performance liquid chromatography (HPLC) purification (Agilent 1260 system with a preparative pump) was performed using a 5 micron C18 column (21.2×150 mm, Agilent). For both HPLC and LCMS, the mobile phase consisted of HPLC grade acetonitrile and water, treated with 0.1% formic acid. Spectroscopic analysis was performed on a Spectramax M5 spectrometer (Molecular Devices, Sunnyvale, Calif.) using a quartz cuvette with a 1 cm pathlength. Quantum yield was calculated according to equation (1).
Where Ø is the quantum yield, F is the integrated fluorescence intensity, f is the absorbance at the excitation wavelength and n is the refractive index of the solvent. S refers to the quantum yield standard (Rhodamine B)^25 and X refers to the unknown sample.

## CCN(CC)c1ccc2nc3c4cc(-c5ccc(C#N)cc5)ccc4c(=O)cc-3oc2c1 [NR12, 4-(9-(diethylamino)-5-oxo-5H-benzo[a]phenoxazin-2-yl)benzonitrile]
[1]
  adipose to muscle ratio: lower than Nile Red, adipose to muscle contrast was similar
  adipose to nerve ratio: increased contrast over control autofluorescence with similar adipose to nerve contrast
[2]
  structures observed in live cells without washing: Prominent lipid droplet like structures
[3]
  tissue staining specificity on mouse tissue sections: adipose specificity
[4]
  Max Abs: 560 nm
  Max Em: 635 nm
  Stokes Shift: 75 nm
